Where a SMILES comes first, the peptide text is derived from it. Bridges are numbered along the chain shown (N, C = ends).
What was measured:
[1] = target: T1, Sodium channel protein type 9 subunit alpha (Homo sapiens, UniProt Q15858); assay: Inhibition of human Nav1.7 stably expressed in cells with train pulses to -20 mV at 0.1 Hz and holding potential of -95 mV by Qube-automated patch clamp assay; format: cell-based
[2] = target: Sodium channel protein type 4 subunit alpha (Homo sapiens, UniProt P35499); assay: Inhibition of human Nav1.4 stably expressed in cells with train pulses to -20 mV at 0.1 Hz and holding potential of -95 mV by whole-cell Qube-automated patch clamp assay; format: cell-based
[3] = target: Sodium channel protein type 8 subunit alpha (Homo sapiens, UniProt Q9UQD0); assay: Inhibition of human Nav1.6 stably expressed in cells with train pulses to -20 mV at 0.1 Hz and holding potential of -85 mV by whole-cell Qube-automated patch clamp assay; format: cell-based
[4] = target: T1, Sodium channel protein type 9 subunit alpha; assay: Inhibition of human Nav1.7 stably expressed in cells with train pulses to -20 mV at 0.1 Hz and holding potential of -95 mV by whole-cell QPatch HT assay; format: cell-based
[5] = target: Sodium channel protein type 9 subunit alpha (Rattus norvegicus, UniProt O08562); assay: Inhibition of rat Nav1.7 stably expressed in cells with train pulses to -20 mV at 0.1 Hz and holding potential of -90 mV by whole-cell QPatch HT assay; format: cell-based
[6] = target: Sodium channel protein type 2 subunit alpha (Homo sapiens, UniProt Q99250); assay: Inhibition of human Nav1.2 stably expressed in cells with train pulses to -20 mV at 0.1 Hz and holding potential of -95 mV by Qube-automated patch clamp assay; format: cell-based
[7] = target: Voltage-dependent L-type calcium channel subunit alpha-1C (Homo sapiens, UniProt Q13936); assay: Inhibition of human Cav1.2 stably expressed in HEK293 cells incubated for 30 mins in dark by Fluo-4 AM dye based FLIPR assay; format: cell-based
[8] = target: Voltage-gated inwardly rectifying potassium channel KCNH2 (Homo sapiens, UniProt Q12809); assay: Inhibition of human ERG by PatchXpress assay; format: toxicity
[9] = target: Sodium channel protein type 5 subunit alpha (Homo sapiens, UniProt Q14524); assay: Inhibition of human Nav1.5 by PatchXpress assay; format: toxicity
[10] = Inhibition of mast cell degranulation in Wistar Han rat peritoneal lavage mast cells assessed as inhibition histamine release by measuring lowest concentration at which histamine release observed measured after 30 mins; format: functional; settings: 0.5 h
Mast cell = assay: Effect on mast cell degranulation in Wistar Han rat peritoneal lavage mast cells assessed as fold increase in histamine level by measuring histamine Cmax in plasma at 0.3 mg/kg, iv administered as bolus dose measured up to 24 hrs by LC/MS/MS analysis relative to control; format: functional; settings: time hrs <=24
Rattus norvegicus [11] = assay: Antinociceptive activity against Sprague-Dawley rat model of thermal stimuli induced nociception assessed as increase in tail withdrawal latency administered subcutaneously as single dose measured up to 24 hrs by tail flick test; format: functional, organism-based; settings: time hrs <=24
Rattus norvegicus [12] = assay: Antinociceptive activity against Sprague-Dawley rat model of thermal stimuli induced nociception assessed as concentration required for maximal tail flick withdrawal latency administered subcutaneously as single dose measured up to 24 hrs by tail flick test; format: functional, organism-based
[13] = Ratio of IC50 for inhibition of rat Nav1.7 stably expressed in cells to EC50 for antinociceptive activity against Sprague-Dawley rat model of thermal stimuli induced nociception assessed as concentration required for maximal tail flick withdrawal latency; format: functional
[14] = Half life in Wistar Han rat at 0.3 mg/kg, iv measured upto 24 hrs by LC/MS/MS analysis; format: ADME, organism-based; settings: in vivo
Rattus norvegicus [15] = assay: Antinociceptive activity against Sprague-Dawley rat model of thermal stimuli induced nociception assessed as increase in tail withdrawal latency administered subcutaneously as single dose measured up to 300 mins by tail flick test; format: functional, organism-based; settings: dose 1-2 mg/kg, time min <=300
Rattus norvegicus [16] = assay: Antinociceptive activity against Sprague-Dawley rat model of thermal stimuli induced nociception assessed as concentration required for maximal tail flick withdrawal latency administered subcutaneously as single dose measured up to 300 mins by tail flick test; format: functional, organism-based; settings: 5 h

Sodium channel protein type 9 subunit alpha (Rattus norvegicus, UniProt O08562), sequence (O08562 whole entry): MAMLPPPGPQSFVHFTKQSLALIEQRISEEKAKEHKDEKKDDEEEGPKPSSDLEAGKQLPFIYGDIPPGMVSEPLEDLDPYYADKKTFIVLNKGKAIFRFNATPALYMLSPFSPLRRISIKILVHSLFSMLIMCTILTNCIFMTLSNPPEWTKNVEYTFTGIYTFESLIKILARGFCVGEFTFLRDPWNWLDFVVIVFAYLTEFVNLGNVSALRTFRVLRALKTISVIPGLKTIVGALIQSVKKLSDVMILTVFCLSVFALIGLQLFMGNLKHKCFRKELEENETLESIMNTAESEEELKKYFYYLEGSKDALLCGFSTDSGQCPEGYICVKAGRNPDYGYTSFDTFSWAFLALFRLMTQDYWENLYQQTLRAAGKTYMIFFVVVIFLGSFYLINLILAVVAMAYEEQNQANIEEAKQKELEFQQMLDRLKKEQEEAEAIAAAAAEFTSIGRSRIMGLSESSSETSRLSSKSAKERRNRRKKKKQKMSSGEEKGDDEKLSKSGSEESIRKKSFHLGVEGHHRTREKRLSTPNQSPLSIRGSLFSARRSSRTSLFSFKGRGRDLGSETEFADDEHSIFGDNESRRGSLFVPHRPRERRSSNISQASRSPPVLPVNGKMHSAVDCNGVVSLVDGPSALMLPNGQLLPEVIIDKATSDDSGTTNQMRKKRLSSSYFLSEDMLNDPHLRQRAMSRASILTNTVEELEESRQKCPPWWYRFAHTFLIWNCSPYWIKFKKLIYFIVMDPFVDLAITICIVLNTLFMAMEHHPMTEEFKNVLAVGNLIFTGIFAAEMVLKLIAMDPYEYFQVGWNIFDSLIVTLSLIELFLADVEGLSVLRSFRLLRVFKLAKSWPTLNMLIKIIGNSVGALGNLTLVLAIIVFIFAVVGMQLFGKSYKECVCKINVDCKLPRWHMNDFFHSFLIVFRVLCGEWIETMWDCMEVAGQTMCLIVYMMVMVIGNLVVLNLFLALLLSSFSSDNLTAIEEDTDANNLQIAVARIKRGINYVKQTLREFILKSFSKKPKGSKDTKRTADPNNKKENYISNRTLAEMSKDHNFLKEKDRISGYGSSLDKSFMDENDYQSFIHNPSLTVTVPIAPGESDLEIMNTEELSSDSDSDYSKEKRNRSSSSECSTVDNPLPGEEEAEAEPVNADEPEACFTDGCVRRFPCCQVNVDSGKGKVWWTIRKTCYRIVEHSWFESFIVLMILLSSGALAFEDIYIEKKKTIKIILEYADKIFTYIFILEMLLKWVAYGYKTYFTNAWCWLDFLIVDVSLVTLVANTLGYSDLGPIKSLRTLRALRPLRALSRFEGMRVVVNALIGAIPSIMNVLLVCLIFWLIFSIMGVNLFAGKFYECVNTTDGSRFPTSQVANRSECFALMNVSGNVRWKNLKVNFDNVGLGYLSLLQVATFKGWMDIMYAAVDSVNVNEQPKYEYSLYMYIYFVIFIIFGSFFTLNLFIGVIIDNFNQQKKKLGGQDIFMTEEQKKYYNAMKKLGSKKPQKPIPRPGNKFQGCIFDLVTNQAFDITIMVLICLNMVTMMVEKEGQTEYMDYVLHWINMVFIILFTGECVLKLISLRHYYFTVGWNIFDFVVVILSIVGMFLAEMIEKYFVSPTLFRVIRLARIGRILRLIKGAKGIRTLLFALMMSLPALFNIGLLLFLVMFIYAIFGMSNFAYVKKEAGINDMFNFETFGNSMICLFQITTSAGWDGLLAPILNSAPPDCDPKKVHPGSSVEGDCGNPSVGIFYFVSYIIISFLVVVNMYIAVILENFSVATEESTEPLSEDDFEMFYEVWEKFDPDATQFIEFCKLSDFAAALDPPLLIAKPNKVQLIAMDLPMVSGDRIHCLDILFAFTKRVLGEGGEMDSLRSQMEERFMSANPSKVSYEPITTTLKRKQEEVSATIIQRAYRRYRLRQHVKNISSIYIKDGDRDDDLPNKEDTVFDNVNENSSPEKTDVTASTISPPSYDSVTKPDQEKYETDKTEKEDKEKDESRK
Sodium channel protein type 5 subunit alpha, sequence (Q14524 whole entry): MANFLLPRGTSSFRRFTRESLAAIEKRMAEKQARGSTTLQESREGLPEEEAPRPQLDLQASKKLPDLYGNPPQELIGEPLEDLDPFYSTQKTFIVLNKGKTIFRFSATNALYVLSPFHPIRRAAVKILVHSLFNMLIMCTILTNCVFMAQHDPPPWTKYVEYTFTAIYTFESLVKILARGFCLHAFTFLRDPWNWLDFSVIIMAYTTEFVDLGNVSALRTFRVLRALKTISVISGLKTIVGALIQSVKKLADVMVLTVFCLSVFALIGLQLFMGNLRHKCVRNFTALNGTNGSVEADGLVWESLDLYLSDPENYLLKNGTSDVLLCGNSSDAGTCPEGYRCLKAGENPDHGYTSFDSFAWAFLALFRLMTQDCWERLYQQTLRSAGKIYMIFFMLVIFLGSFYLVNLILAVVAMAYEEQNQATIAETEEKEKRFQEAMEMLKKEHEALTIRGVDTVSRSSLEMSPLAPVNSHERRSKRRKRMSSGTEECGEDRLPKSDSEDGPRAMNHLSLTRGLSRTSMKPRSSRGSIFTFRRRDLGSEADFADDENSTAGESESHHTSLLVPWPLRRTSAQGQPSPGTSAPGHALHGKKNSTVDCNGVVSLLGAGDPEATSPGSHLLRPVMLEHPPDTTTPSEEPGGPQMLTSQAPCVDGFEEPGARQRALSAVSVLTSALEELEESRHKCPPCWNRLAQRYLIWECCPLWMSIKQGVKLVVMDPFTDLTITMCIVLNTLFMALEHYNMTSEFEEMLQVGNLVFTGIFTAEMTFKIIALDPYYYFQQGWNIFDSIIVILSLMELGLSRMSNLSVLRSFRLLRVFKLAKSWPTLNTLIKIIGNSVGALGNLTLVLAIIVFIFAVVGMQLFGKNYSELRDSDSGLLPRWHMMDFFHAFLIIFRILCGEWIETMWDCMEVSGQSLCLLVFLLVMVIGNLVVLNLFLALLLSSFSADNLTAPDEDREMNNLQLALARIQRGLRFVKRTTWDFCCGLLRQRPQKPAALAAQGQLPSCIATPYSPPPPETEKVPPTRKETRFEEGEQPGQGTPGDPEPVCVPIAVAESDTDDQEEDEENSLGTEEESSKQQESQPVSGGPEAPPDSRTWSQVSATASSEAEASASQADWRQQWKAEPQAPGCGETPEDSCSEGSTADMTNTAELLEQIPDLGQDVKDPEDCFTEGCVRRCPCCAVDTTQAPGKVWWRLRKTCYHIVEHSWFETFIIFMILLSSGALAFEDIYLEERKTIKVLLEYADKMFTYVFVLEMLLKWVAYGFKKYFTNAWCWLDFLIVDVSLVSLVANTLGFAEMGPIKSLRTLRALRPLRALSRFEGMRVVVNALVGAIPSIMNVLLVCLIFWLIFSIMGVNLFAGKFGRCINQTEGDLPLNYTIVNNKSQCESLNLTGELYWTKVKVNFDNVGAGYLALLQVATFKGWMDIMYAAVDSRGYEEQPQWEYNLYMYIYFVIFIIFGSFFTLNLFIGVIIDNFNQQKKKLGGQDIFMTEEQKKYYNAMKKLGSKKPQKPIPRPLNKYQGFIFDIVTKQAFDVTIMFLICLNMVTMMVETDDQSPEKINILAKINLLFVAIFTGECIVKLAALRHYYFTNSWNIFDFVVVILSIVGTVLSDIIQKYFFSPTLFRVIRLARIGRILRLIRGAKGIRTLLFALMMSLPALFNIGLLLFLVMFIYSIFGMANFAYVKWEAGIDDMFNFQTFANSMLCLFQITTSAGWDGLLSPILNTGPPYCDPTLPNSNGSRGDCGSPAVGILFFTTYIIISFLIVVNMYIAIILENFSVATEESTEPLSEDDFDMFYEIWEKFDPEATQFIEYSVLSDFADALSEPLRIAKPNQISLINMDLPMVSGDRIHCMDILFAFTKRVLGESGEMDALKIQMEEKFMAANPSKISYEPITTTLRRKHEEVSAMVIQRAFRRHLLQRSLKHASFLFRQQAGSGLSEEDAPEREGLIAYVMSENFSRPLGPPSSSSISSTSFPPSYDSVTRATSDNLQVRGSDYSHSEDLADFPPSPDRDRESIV
Voltage-gated inwardly rectifying potassium channel KCNH2, sequence (Q12809 whole entry): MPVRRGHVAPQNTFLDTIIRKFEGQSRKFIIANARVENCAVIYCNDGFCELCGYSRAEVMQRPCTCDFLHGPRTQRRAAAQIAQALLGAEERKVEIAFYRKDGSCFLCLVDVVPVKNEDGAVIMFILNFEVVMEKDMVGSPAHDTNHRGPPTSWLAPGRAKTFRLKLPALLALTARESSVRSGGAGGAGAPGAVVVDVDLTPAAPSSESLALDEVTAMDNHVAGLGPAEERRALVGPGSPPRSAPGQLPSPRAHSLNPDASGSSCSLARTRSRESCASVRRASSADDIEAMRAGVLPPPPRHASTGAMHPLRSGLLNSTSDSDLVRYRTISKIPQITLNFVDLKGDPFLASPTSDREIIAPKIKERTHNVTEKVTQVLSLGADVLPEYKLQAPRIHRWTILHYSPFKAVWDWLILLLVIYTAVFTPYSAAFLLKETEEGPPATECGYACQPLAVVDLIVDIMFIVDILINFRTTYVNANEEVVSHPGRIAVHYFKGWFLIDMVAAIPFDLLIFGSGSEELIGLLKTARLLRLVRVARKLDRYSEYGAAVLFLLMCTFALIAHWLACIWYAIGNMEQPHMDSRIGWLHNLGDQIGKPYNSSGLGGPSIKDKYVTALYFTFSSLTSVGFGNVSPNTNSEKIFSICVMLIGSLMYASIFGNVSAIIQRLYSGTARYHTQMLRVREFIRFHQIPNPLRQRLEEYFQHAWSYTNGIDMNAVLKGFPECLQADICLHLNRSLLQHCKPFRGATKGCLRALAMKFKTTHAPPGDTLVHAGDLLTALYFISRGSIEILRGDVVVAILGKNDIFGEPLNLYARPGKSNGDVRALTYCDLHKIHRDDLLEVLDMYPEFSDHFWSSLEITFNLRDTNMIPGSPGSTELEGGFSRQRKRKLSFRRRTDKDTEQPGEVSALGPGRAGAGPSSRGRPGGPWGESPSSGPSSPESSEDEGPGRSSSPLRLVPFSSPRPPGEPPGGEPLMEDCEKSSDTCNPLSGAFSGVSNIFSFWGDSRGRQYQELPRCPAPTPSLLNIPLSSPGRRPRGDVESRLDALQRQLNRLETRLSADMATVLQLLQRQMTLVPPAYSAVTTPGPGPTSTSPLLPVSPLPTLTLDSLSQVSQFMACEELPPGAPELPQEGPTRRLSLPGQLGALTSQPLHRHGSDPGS

| Compound | IC50 [1] [nM] | IC50 [2] [nM] | IC50 [3] [nM] | IC50 [4] [nM] | IC50 [5] [nM] | IC50 [6] [nM] | IC50 [7] [nM] | IC50 [8] [nM] | IC50 [9] [nM] | LED [10] [µM] | fold change (FC) (Mast cell) | Activity (Rattus norvegicus [11]) | EC50 (Rattus norvegicus [12]) [nM] | fold change (FC) [13] | half-life [14] [h] | Activity (Rattus norvegicus [15]) | EC50 (Rattus norvegicus [16]) [nM] |
| --- | --- | --- | --- | --- | --- | --- | --- | --- | --- | --- | --- | --- | --- | --- | --- | --- | --- |
| CC(C)C[C@@H]1NC(=O)CNC(=O)[C@H](CCC(=O)O)NC(=O)[C@@H]2CSSC[C@H](NC(=O)[C@@H](N)Cc3ccc(O)cc3)C(=O)N[C@@H](CCC(N)=O)C(=O)N[C@@H](CCCCN)C(=O)N[C@@H](Cc3ccccc3)C(=O)N[C@@H](CC(C)C)C(=O)N[C@@H](C)C(=O)N3CCC[C@H]3C(=O)N[C@H]3CSSC[C@H](NC(=O)[C@H](C(C)C)NC1=O)C(=O)N[C@@H](CCCNC(=N)N)C(=O)N[C@@H](CC(C)C)C(=O)N[C@@H](Cc1c[nH]c4ccccc14)C(=O)N[C@H](C(=O)N[C@@H](CCCCN)C(=O)N[C@@H](CCCCN)C(=O)N[C@@H](CCCCN)C(=O)N[C@@H](CC(C)C)C(=O)N[C@@H](Cc1c[nH]c4ccccc14)C(N)=O)CSSC[C@H](NC(=O)[C@H](CCCCN)NC(=O)[C@H](CCCNC(=N)N)NC(=O)[C@H](CCC(=O)O)NC(=O)[C@H](CO)NC(=O)[C@H](CC(=O)O)NC3=O)C(=O)N2 (H-YCQKFLAPCDSERKCCEGLVCRLWCKKKLW-NH2; disulfide 2-16, 9-21, 15-25) | 32 | 1770 | 1190 | 5.9 | 8.3 | > 17000 | > 30000 | 780 | 2900 | 3.3 | 12 | Dose-Dependent Effect | 294 | 50 | < 3 | – | – |
| CSCC[C@@H]1NC(=O)CNC(=O)[C@H](CCC(=O)O)NC(=O)[C@@H]2CSSC[C@H](NC(=O)[C@@H](N)Cc3ccc(O)cc3)C(=O)N[C@@H](CCC(N)=O)C(=O)N[C@@H](CCCCN)C(=O)N[C@@H](Cc3c[nH]c4ccccc34)C(=O)N[C@@H](CCSC)C(=O)N[C@@H](Cc3c[nH]c4ccccc34)C(=O)N[C@@H]([C@@H](C)O)C(=O)N[C@H]3CSSC[C@H](NC(=O)[C@H](C(C)C)NC1=O)C(=O)N[C@@H](CCCNC(=N)N)C(=O)N[C@@H](CC(C)C)C(=O)N[C@@H](Cc1c[nH]c4ccccc14)C(=O)N[C@H](C(=O)N[C@@H](CCCCN)C(=O)N[C@@H](CCCCN)C(=O)N[C@@H](CCCCN)C(=O)N[C@@H](CC(C)C)C(=O)N[C@@H](Cc1c[nH]c4ccccc14)C(N)=O)CSSC[C@H](NC(=O)[C@H](CCCCN)NC(=O)[C@H](CCCNC(=N)N)NC(=O)[C@H](CCC(=O)O)NC(=O)[C@H](CO)NC(=O)[C@H](CC(=O)O)NC3=O)C(=O)N2 | – | 93 | 75 | – | 1.3 | 1500 | 1400 | 22 | 180 | 0.37 | – | – | – | 50 | < 3 | Dose-Dependent Effect | 56 |

Source: ChEMBL document CHEMBL5038633 (J Med Chem, 2022)
